Assays:
Assay type in all cases: cell-based
vanilloid receptor (VR1) = target: T1, vanilloid receptor (VR1) (Homo sapiens, UniProt Q8NER1); experiment: FLIPR Ca2+ influx assay with CHO K1 cells transfected with the human VR1 gene, capsaicin stimulus (Pharmacological method II); conditions: capsaicin 100 nM stimulus, Ki from IC50 by Cheng-Prusoff
T1 construct: expressed in transfected cells; host or cells: CHO K1 cells (ECACC), stably transfected
Experimental: In addition, compounds according to the invention of the general formulae I, Ia, Ib, I′, I″, I′″ may be preferred which, in a FLIPR assay with CHO K1 cells which have been transfected with the human gene VR1, in a concentration of less than 2000 nM, preferably of less than 1000 nM, particularly preferably of less then 300 nM, very particularly preferably of less than 100 nM, still more preferably of less than 75 nM, further preferably of less than 50 nM, most preferably of less than 10 nM, bring about 50% displacement of capsaicin which is present in a concentration of 100 nM.
In this FLIPR assay, the influx of Ca^2+ is quantified with the assistance of a Ca^2+-sensitive dye (type Fluo-4, Molecular Probes Europe BV, Leiden, Netherlands) in a Fluorescent Imaging Plate Reader (FLIPR, Molecular Devices, Sunnyvale, USA) as described below.
The agonistic or antagonistic action of the substances to be investigated on the vanilloid receptor (VR1) may also be determined with the following assay. According to this assay, the influx of Ca^2+ through the channel is quantified with the assistance of a Ca^2+-sensitive dye (type Fluo-4, Molecular Probes Europe BV, Leiden, Netherlands) in a Fluorescent Imaging Plate Reader (FLIPR, Molecular Devices, Sunnyvale, USA).
Chinese hamster ovary cells (CHO K1 cells, European Collection of Cell Cultures (ECACC), Great Britain) are stably transfected with the VR1 gene. For functional investigations, these cells are plated out onto poly-D-lysine-coated, black 96-hole plates with a clear base (BD Biosciences, Heidelberg, Germany) at a density of 25,000 cells/hole. The cells are incubated overnight at 37° C. and 5% CO2 in a culture medium (Ham's Nutrient Mixture F12, 10 vol. % FCS (foetal calf serum), 18 μg/mL L-proline). On the following day, the cells are incubated with Fluo-4 (Fluo-4 2 μM, Pluronic F127 0.01 vol. %, Molecular Probes in HBSS (Hank's buffered saline solution), Gibco Invitrogen GmbH, Karlsruhe, Germany) for 30 minutes at 37° C. The plates are then washed 3 times with HBSS buffer and, after a further 15 minutes' incubation at room temperature, used for Ca^2+ measurement in the FLIPR. Ca^2+-dependent fluorescence is here measured before and after the addition of the substances to be investigated (wavelength λex=488 nm, λem=540 nm). Quantification proceeds by measuring the highest fluorescence intensity (FC, fluorescence counts) over time.
The FLIPR protocol consists of 2 additions of substance. The substances to be tested (10 μM) are firstly pipetted onto the cells and Ca^2+ influx is compared with the control (capsaicin 10 μM) (% activation relative to the Ca^2+ signal after addition of 10 μM of capsaicin). After 5 minutes' incubation, 100 nM of capsaicin are added and the influx of Ca^2+ is likewise determined.
The percentage inhibition in comparison with the maximum achievable inhibition with 10 μM capsaicin is calculated.
On the basis of the percentage displacement by different concentrations of the compounds to be tested of the general formula I, IC50 inhibition concentrations which bring about 50% displacement of capsaicin were calculated. Ki values for the test substances were obtained by conversion using the Cheng-Prusoff equation (Cheng, Prusoff; Biochem. Pharmacol. 22, 3099-3108, 1973).

[1] = target: T2, vanilloid receptor 1 (VR1/TRPV1) of the rat species (Rattus norvegicus, UniProt O35433); experiment: FLIPR Ca2+ influx assay on rat dorsal root ganglia cells, capsaicin stimulus (Pharmacological method I); conditions: capsaicin 100 nM stimulus, Ki from IC50 by Cheng-Prusoff
T2 construct: The spinal column is removed from decapitated rats; from tissue; host or cells: primary cells from rat dorsal root ganglia (DRG)
T2 sequence (O35433 whole entry): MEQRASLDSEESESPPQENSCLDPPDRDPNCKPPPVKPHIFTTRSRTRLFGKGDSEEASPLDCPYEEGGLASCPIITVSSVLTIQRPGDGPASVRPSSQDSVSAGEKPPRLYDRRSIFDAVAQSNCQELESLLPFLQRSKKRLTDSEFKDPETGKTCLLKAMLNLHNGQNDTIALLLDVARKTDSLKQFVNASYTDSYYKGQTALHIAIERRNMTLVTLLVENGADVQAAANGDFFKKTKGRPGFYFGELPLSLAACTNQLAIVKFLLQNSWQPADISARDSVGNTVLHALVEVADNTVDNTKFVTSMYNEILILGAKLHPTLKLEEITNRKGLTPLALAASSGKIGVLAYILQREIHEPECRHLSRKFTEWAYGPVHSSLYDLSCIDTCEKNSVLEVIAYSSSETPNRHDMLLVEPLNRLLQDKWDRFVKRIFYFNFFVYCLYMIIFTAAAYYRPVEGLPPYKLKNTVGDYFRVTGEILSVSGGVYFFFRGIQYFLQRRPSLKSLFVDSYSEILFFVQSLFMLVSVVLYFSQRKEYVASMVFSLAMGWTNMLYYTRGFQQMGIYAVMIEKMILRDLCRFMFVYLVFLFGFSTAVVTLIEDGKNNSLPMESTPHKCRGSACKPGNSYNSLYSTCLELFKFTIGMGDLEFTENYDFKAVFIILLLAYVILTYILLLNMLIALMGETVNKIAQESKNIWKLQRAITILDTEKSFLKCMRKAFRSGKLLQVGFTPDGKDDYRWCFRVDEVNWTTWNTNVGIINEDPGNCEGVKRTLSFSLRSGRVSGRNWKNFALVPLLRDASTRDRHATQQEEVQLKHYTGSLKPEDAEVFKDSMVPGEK
Experimental: The agonistic or antagonistic action of the substances to be investigated on the vanilloid receptor 1 (VR1/TRPV1) of the rat species may be determined with the following assay. According to this assay, the influx of Ca^2+ through the receptor channel is quantified with the assistance of a Ca^2+-sensitive dye (type Fluo-4, Molecular Probes Europe BV, Leiden, Netherlands) in a Fluorescent Imaging Plate Reader (FLIPR, Molecular Devices, Sunnyvale, USA).
Complete medium: 50 mL HAMS F12 Nutrient Mixture (Gibco Invitrogen GmbH, Karlsruhe, Germany) with 10 vol. % FCS (foetal calf serum, Gibco Invitrogen GmbH, Karlsruhe, Germany, heat-inactivated);
Cell culture plate: poly-D-lysine-coated, black 96-hole plates with clear base (96 well black/clear plate, BD Biosciences, Heidelberg, Germany) are additionally coated with laminin (Gibco Invitrogen GmbH, Karlsruhe, Germany), by diluting laminin to a concentration of 100 μg/mL with PBS (Ca—Mg-free PBS, Gibco Invitrogen GmbH, Karlsruhe, Germany). Aliquots with a concentration of 100 μg/mL of laminin are taken and stored at −20° C. The aliquots are diluted with PBS in the ratio of 1:10 to 10 μg/mL of laminin and 50 μL of the solution is pipetted into each well of the cell culture plate. The cell culture plates are incubated for at least two hours at 37° C., the supernatant solution is aspirated and the wells are each washed twice with PBS. The coated cell culture plates are stored with supernatant PBS and this is only removed directly prior to introduction of the cells.
The spinal column is removed from decapitated rats and this is placed directly in cold HBSS buffer (Hank's buffered saline solution, Gibco Invitrogen GmbH, Karlsruhe, Germany), i.e. located in an ice bath, combined with 1 vol. % (percent by volume) of an AA solution (antibiotic/antimycotic solution, PAA, Pasching, Austria). The spinal column is severed lengthwise and removed from the spinal canal together with fasciae. The dorsal root ganglia (DRGs) are then removed and in turn stored in cold HBSS buffer combined with 1 vol. % of an AA solution. The DRGs, from which blood residues and spinal nerves have been completely removed, are in each case transferred into 500 μL cold collagenase type 2 (PAA, Pasching, Austria) and incubated for 35 minutes at 37° C. After the addition of 2.5 vol. % trypsin (PAA, Pasching, Austria) incubation at 37° C. is continued for a further 10 minutes. After complete incubation, the enzyme solution is carefully pipetted off and the remaining DRGs are combined in each case with 500 μL of complete medium.
The DRGs are in each case repeatedly suspended, drawn through cannulas no. 1, no. 12 and no. 16 by means of a syringe and transferred into 50 mL Falcon microtubes, these being filled to 15 mL with complete medium. The content of each Falcon microtube is in each case filtered through a 70 μm Falcon filter insert and centrifuged for 10 minutes at 1200 revolutions and room temperature. The resultant pellet is in each case redissolved in 250 μL of complete medium and the cell count is determined.
The number of cells in the suspension is adjusted to 3×10^5 per mL and a 150 μL portion of this suspension is in each case placed in a well of the cell culture plates which have been coated as described above. The plates are left to stand in the incubator for two to three days at 37° C., 5 vol. % CO2 and 95% relative atmospheric humidity.
The cells are then loaded with 2 μM Fluo-4 and 0.01 vol. % Pluronic F127 (Molecular Probes Europe BV, Leiden, Netherlands) in HBSS buffer (Hank's buffered saline solution, Gibco Invitrogen GmbH, Karlsruhe, Germany) for 30 min at 37° C., washed 3×with HBSS buffer and, after a further 15 minutes' incubation at room temperature, used for Ca^2+ measurement in the FLIPR assay. Ca^2+-dependent fluorescence is here measured before and after the addition of substances (λex=488 nm, λem=540 nm). […]

[2] = target: vanilloid receptor 1 (VR1/TRPV1 receptor) (Homo sapiens, UniProt Q8NER1); experiment: Human VR1/TRPV1 receptor inhibition after pH stimulus
Sequence of vanilloid receptor 1 (VR1/TRPV1 receptor) (Q8NER1 whole entry): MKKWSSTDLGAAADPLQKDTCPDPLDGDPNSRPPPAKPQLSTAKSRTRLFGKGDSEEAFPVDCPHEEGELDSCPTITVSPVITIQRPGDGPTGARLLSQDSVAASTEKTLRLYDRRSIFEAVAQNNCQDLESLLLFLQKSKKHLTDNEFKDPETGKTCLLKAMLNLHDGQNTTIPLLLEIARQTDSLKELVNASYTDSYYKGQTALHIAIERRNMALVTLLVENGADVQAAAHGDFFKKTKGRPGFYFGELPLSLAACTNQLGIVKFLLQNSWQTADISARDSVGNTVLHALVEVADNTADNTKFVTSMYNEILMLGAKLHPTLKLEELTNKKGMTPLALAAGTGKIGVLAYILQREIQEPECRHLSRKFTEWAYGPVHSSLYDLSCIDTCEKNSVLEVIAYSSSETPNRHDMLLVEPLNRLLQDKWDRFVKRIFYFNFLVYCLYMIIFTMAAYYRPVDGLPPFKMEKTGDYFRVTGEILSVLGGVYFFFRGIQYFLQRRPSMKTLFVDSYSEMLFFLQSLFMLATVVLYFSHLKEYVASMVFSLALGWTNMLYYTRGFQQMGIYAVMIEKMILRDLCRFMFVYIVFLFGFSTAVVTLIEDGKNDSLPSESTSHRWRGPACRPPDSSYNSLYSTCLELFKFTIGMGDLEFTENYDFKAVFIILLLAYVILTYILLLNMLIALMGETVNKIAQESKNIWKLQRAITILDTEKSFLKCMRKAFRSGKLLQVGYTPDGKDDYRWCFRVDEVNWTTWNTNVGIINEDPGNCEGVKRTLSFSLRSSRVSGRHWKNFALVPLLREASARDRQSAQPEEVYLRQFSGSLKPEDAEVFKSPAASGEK

T1 sequence (Q8NER1 whole entry): as above

CC(C(=O)NCc1ccc(C(C)(C)C)cc1SC1CCCCC1)c1ccc(N(C)S(C)(=O)=O)c(F)c1 (centres unmarked) [Example 15, N-(4-tert.-butyl-2-(cyclohexylthio)benzyl)-2-(3-fluoro-4-(N-methylmethylsulfonamido)phenyl)propanamide]
Ki (vanilloid receptor (VR1)): 18.3 nM
Ki [1]: 7.6 nM
inhibition at 1 µM ([2]; compound 1 μM): 0%
inhibition at 5 µM ([2]; compound 5 μM): 6%
inhibition at 10 µM ([2]; compound 10 μM): 30%

Reference: patent US8642623B2, “Vanilloid receptor ligand compounds, pharmaceutical compositions containing them, a method of producing them and the use thereof to treat pain and various other conditions” (Gruenenthal GmbH, priority 2007, dated 2014)
